Values quoted from earlier work, collected in patent publication EP4026540A1, “A FILM COATED TABLET COMPRISING APIXABAN” (SANOVEL ILAC SANAYI VE TICARET A.S., priority 2021, dated 2022).

Details: single 10 mg dose

oral bioavailability: about 50%
Structure (SMILES): COc1ccc(-n2nc(C(N)=O)c3c2C(=O)N(c2ccc(N4CCCCC4=O)cc2)CC3)cc1 [apixaban, 1-(4-methoxyphenyl)-7-oxo-6-[4-(2-oxopiperidin-1-yl)phenyl]-4,5,6,7-tetrahydro-1H-pyrazolo[3,4-c]pyridine-3-carboxamide]
